Source: patent publication US20080113900A1, “Pharmaceutical compositions and therapeutic applications for the use of a synthetic vitamin B12 derivative, glutathionylcobalamin” (priority 2006, published 2008)
Values joined by “and” are separate entries in the source; they are usually repeats but may differ in a detail not shown here. Equal entries are not always repeated. Structures can show the parent of a compound that is named as a salt.

What was measured:
[1] = tested on: SK-HEP-1 cells; test: Protection of endothelial cells from homocysteine-induced cell death (MTS assay); assay type: cell-based, human
Procedure: The effect of a constant concentration of NACCbl and GSCbl to protect cells against variable concentrations of homocysteine was assessed. […] Cell viability was determined by MTS® assay. Data shown in FIG. 4 are representative of means ±SE of 6 independent samples. FIG. 4 illustrates that NACCbl (▪) and GSCbl (▴) protect endothelial cells from the effect of homocysteine. […] Cell viability was determined by MTS® assay. […] There was a decrease in protection as homocysteine concentration increased, but there was still ˜60% survival at 50 μM homocysteine.
The data was normalized (log 2 and log 10) as shown in FIGS. 16 and 17 and Tables 16 and 17, respectively, below.

[2] = tested on: Hsp32; test: Hsp32 gene expression (RT-PCR, densitometry); assay type: cell-based, human
Procedure: (§1) Cells were plated into 6-, 12-, or 24-well cell culture clusters, at 2×10^3, 2×10^5, or 1×10^5 cells per well and incubated until 90% confluent. Treatments were applied as above.
(§2) Following incubation, cells were subjected to mRNA extraction followed by cDNA synthesis for each sample under test. Polymerase chain reaction cDNA templates were prepared for simplex PCR protocol. PCR products were then visualized using a UV Transilluminator and images captured using a Kodak ID gel imaging system. Densitometry and statistical analysis was then performed on each gene expression band image using PSP® v 10.0 running under Windows XP®.
(§3) mRNA extraction was performed using the Quickprep micro mRNA Purification Kit. Following incubation of cells post-treatment, the media was removed from the cells, adherent cells were re-suspended in 0.4 ml extraction buffer and 0.8 ml elution buffer at 65° C. was added.
A reaction mixture was prepared in individual microcentrifuge tubes containing 2 cDNA synthesis beads, 32 μl of the mRNA solution and 1 μl of pd(N)6. This mixture was incubated at 37° C. in a water bath for 60 minutes. After incubation, 27 μl of RNase-free DEPC treated water was added to each tube to make a total volume 60 μl. cDNA samples were prepared in duplicate. Sample 1 was used immediately in RT-PCR protocol. Sample 2 was prepared for qPCR protocol by the addition of 150 μl of 95% ice-cold ethanol and stored at −20° C.
Microcentrifuge tubes from puReTaq™Ready-To-Go™ PCR Beads containing one PCR bead were labeled for each sample required. Added to the PCR bead were 17 μl of RNase-free DEPC treated water, 1 μl sense primer, 1 μl anti-sense primer and 5 μl of the cDNA solution. RT-PCR conditions were as follows: Hsp70 and β-actin, pre-treatment step, 94° C. for 1 minute, followed by denaturing at 92° C. for 1 minute, annealing at 60° C. for 1 minute and extension at 72° C. for 1 minute. Total cycles, 30, post-treatment was then carried out at 72° C. for 10 minutes. For Hsp32, pre-treatment step, 95° C. for 2 minutes, followed by denaturing at 94° C. for 30 seconds, annealing at 58° C. for 1 minute and extension at 72° C. for 1 minute. Total cycles 45, post treatment was then carried out at 72° C. for 10 minutes. Following RT-PCR, samples were stored at −20° C.
Gels were visualised on a UV Transilluminator. Photographs were stored using a Kodak Digital camera system fitted with a UV filter set connected to a PC. Images were then transferred to the Kodak ID gel imaging system. Densitometry was performed on each gene expression band using PSP™ v10 running under Windows XP®.
Experiments were conducted using Hsp32 and Hsp 70 gene expression as the basis for study. […] The densitometric data are presented as means ±SEM of n=3 separate experiments. *p<0.05 or **p<0.01, treatment vs. control.

[3] = tested on: SK-HEP-1 cells; test: Effect of homocysteine and H2O2 on endothelial cell viability (MTS assay); settings: for Normalized Data Log 2, Mean / Normalized Data Log 10, Mean: Hcy alone, n = 6; for Cell viability (MTS assay): SK-HEP-1, 2 hours, n = 6 replicates
[4] = in vitro; settings: human, SK-HEP-1 cells
[5] = tested on: Hsp70; test: Hsp70 gene expression (RT-PCR, densitometry); settings: SK-HEP-1, 30 μM, 2 hr
Procedure: as §1, §2, §3
A reaction mixture was prepared in individual microcentrifuge tubes containing 2 cDNA synthesis beads, 32 μl of the mRNA solution and 1 μl of pd(N)6. This mixture was incubated at 37° C. in a water bath for 60 minutes. After incubation, 27 μl of RNase-free DEPC treated water was added to each tube to make a total volume 60 μl. cDNA samples were prepared in duplicate. Sample 1 was used immediately in RT-PCR protocol.
Microcentrifuge tubes from puReTaq™Ready-To-Go™ PCR Beads containing one PCR bead were labeled for each sample required. Added to the PCR bead were 17 μl of RNase-free DEPC treated water, 1 μl sense primer, 1 μl anti-sense primer and 5 μl of the cDNA solution. RT-PCR conditions were as follows: Hsp70 and β-actin, pre-treatment step, 94° C. for 1 minute, followed by denaturing at 92° C. for 1 minute, annealing at 60° C. for 1 minute and extension at 72° C. for 1 minute. Total cycles, 30, post-treatment was then carried out at 72° C. for 10 minutes. For Hsp32, pre-treatment step, 95° C. for 2 minutes, followed by denaturing at 94° C. for 30 seconds, annealing at 58° C. for 1 minute and extension at 72° C. for 1 minute. […]

[6] = tested on: SK-HEP-1 cells; test: NACCbl protection from homocysteine with inhibition of Hsp32/Hsp70 by Sn(IX) protoporphyrin, quercitin or siRNA (MTS assay); settings: listed as Hcy
[7] = tested on: SK-HEP-1 cells; test: Protection from homocysteine-induced apoptosis, Caspase-3 activity (apoptosis assay); assay type: cell-based, human; settings: 30 μM two hours, then 30 μM homocysteine two hours
Procedure: Caspase 3 is activated when cells undergo apoptosis. Caspase-3 assay is a standard for apoptosis assay. Homocysteine is a known inducer of apoptosis. Cells were cultured in 96-well plates for 24 hours and then treated with reagents under test conditions. Cytotoxic agents, H2O2 and etoposide were added to negative control wells. The assay was performed according to the manufacturer's protocol, as follows: Cells were re-suspended in 100 μl of clear media and 50 μl of Caspase-3 substrate solution was immediately added to each test well. […] Cell viability was determined by MTS® assay. […] Cell viability was determined by MTS® assay.

NC(CCS)C(=O)O (racemic) [Homocysteine, DL-Homocysteine]
Absorbance at 490 nm, Mean ([1]; SK-HEP-1, NACCbl 30 μM, NAC 75 μM, Hcy conc. 200.000, n = 6, label Hcy = Hcy alone): 0.360 | Mean (FIG. 14, protection of SK-HEP-1 cells from Hcy) ([1]; [Hcy] 30 μM, [NAC] = 45 μM, [NACCbl] = 12.5 μM, [Folate] = 25 μM where named in the label, label Hcy/HCy = Hcy alone): 0.616 | Absorbance at 490 nm, Mean ([1]; as E80, Hcy conc. 1.780): 1.863 | Absorbance at 490 nm, Mean ([1]; as E80, Hcy conc. 3.125): 1.578 | Absorbance at 490 nm, Mean ([1]; as E80, Hcy conc. 6.250): 1.230 | Absorbance at 490 nm, Mean ([1]; as E80, Hcy conc. 12.500): 1.177 | Absorbance at 490 nm, Mean ([1]; as E80, Hcy conc. 25.000): 0.847 | Absorbance at 490 nm, Mean ([1]; as E80, Hcy conc. 50.000): 0.739 | Absorbance at 490 nm, Mean ([1]; as E80, Hcy conc. 100.000): 0.517 | Hsp32 gene expression ([2]; SK-HEP-1, 30 μM, 2 hr): increase in expression | Hsp32 gene expression ([2]; SK-HEP-1, Sn (IX) protoporphyrin 25 μM, Quercitin 15 μM): induced | Normalized Data Log 2, Mean ([3]; conc. 1.780): 59.351 | Normalized Data Log 10, Mean ([3]; conc. 1.780): 89.537 | Normalized Data Log 2, Mean ([3]; conc. 3.125): 48.077 | Normalized Data Log 10, Mean ([3]; conc. 3.125): 73.700 | Normalized Data Log 2, Mean ([3]; conc. 6.250): 34.347 | Normalized Data Log 10, Mean ([3]; conc. 6.250): 54.413 | Normalized Data Log 2, Mean ([3]; conc. 12.500): 32.253 | Normalized Data Log 10, Mean ([3]; conc. 12.500): 51.471 | Normalized Data Log 2, Mean ([3]; conc. 25.000): 19.208 | Normalized Data Log 10, Mean ([3]; conc. 25.000): 33.145 | Normalized Data Log 2, Mean ([3]; conc. 50.000): 14.935 | Normalized Data Log 10, Mean ([3]; conc. 50.000): 27.142 | Normalized Data Log 2, Mean ([3]; conc. 100.000): 6.164 | Normalized Data Log 10, Mean ([3]; conc. 100.000): 14.820 | Normalized Data Log 2, Mean ([3]; conc. 200.000): −0.033 | Normalized Data Log 10, Mean ([3]; conc. 200.000): 6.115 | Concentration achieving greater than 90% death (<10% survival) ([3]; SK-HEP-1, 2 hours): 25 µM | Concentration that killed cells ([3]; SK-HEP-1, 2 hours, p<0.001): ≥ 5 µM | Cell viability (MTS assay) ([3]; 0.781 μM): 98.11 and 102.5676 and 102.4576 and 98.72 and 98.39 | Cell viability (MTS assay) ([3]; 1.562 μM): 100.5319 and 102.4026 and 85.18 and 81.33 and 81.6 and 98.83 | Cell viability (MTS assay) ([3]; 3.125 μM): 91.62 and 82.82 and 78.3 and 80.94 and 91.78 | Cell viability (MTS assay) ([3]; 6.25 μM): 62.02 and 28.4 and 38.2485 and 48.6474 and 67.63 and 55.0298 | Cell viability (MTS assay) ([3]; 25 μM): 1.495 and 0.5044 and 0.1192 | Cell viability (MTS assay) ([3]; 50 μM): 0.2843 (2×) and 0.9445 and 1.44 and 3.255 | viability at 2 h, 0.781 µM [4]: 99.8% | viability at 2 h, 3.125 µM [4]: 96% | Hsp70 gene expression [5]: increase in expression | Cell viability by MTS assay (FIG. 11), replicates 1-6 ([6]; SK-HEP-1, NACCbl 30 μM two hours with or without Sn(IX)PP/quercetin, then Hcy conc. 200 two hours, label Hcy = Hcy alone): 0.33 and 0.312 and 0.39 and 0.302 and 0.421 and 0.406 | Cell viability by MTS assay (FIG. 11), replicates 1-6 ([6]; as E45, Hcy conc. 1.78): 1.746 and 1.932 and 1.95 and 1.83 and 1.837 and 1.884 | Cell viability by MTS assay (FIG. 11), replicates 1-6 ([6]; as E45, Hcy conc. 3.125): 1.543 and 1.487 and 1.656 and 1.63 and 1.593 and 1.558 | Cell viability by MTS assay (FIG. 11), replicates 1-6 ([6]; as E45, Hcy conc. 6.25): 1.304 and 1.406 and 1.227 and 1.176 and 1.15 and 1.119 | Cell viability by MTS assay (FIG. 11), replicates 1-6 ([6]; as E45, Hcy conc. 12.5): 1.104 and 1.001 and 1.042 and 1.114 and 1.324 and 1.479 | Cell viability by MTS assay (FIG. 11), replicates 1-6 ([6]; as E45, Hcy conc. 25): 0.692 and 0.956 and 0.876 and 0.882 and 0.937 and 0.74 | Cell viability by MTS assay (FIG. 11), replicates 1-6 ([6]; as E45, Hcy conc. 50): 0.678 and 0.881 and 0.602 and 0.77 and 0.724 and 0.779 | Cell viability by MTS assay (FIG. 11), replicates 1-6 ([6]; as E45, Hcy conc. 100): 0.654 and 0.449 and 0.466 and 0.501 and 0.522 and 0.51

CN1c2c(nc(N)[nH]c2=O)NC[C@@H]1CNc1ccc(C(=O)N[C@@H](CCC(=O)O)C(=O)O)cc1 [folate, 5-Methyltetrahydrofolic acid disodium salt]
Hsp32 gene expression ([2]; SK-HEP-1, 30 μM, 2 hr): increase in expression | Protection against apoptosis induced by homocysteine [7]: partial protection | Hsp70 gene expression [5]: increase in expression
